pIC50: −log10 of the molar value. Like-named read-outs stand apart in the source and are kept apart here.
What was measured:
VEGFR-3 [1] = target: T1, VEGFR-3 (Homo sapiens, UniProt P35916); experiment: Effect of compounds on VEGFR-3 auto-phosphorylation in HEK cells (ELISA); format: cell-based; settings: autophosphorylation of VEGFR-3-Flag overexpressed in HEK293T cells, 1 h incubation with compound
T1 construct: expressed in transfected cells; host or cells: HEK293T cells, transient transfection with Fugene-6
Experimental: Effect of Compounds on VEGFR-3 Auto-Phosphorylation in HEK Cells
The effects of compounds in blocking VEGFR-3 autophosphorylation were quatified by ELISA after Overexpression of VEGFR-3 in HEK cells. HEK293T cells were maintained in MEM supplemented with 10% foetal calf serum (FCS) and glutamine. The day before transfection, […] were seeded on 48 wells plates and transfection was done using Fugene-6 (Roche, Basel). Fugene-6 (18 μL) was preincubated for 5 min with 282 μl of optimem. Then 3 μg DNA corresponding VFGR-3-Flag was added and left at room temperature during 10 min before distributing 200 μl on HEK cells. After 24 h, the medium was removed and replaced by a new one without serum and incubated for 1 h with different concentrations (ranging from 3 to 1000 nM) of each compound. After additional 30 min incubation with Orthovanadate (0.4 mM), cells were washed with cold PBS supplemented by orthovanadate and then lysed with 300 μl of RIPA buffer. Lysates were then centrifuged during 10 min at 10000 g. Supernatants (75 μl) were distributed in duplicate on 96 well plate precoated with the anti-Flag and left during 1 hour at room temperature. After 3 washes with TBS buffer containing 0.5% tween 20, the anti-phospho-tyrosine conjugated to the HRP was added and incubated for 1 hour at room temperature. Wells were then washed 3 times with TBS buffer containing tween 20 (0.5%) and MgCl2 (2 mM). The reaction was stopped with 50 μl of H2SO4 (2 N) and the signal was read at Envision at 485 and 530.
The concentration-response curves were analyzed with internal software Biost@t-SPEED v2.0 using the 4-parameter logistic model according to Ratkovsky and Reedy (Ratkovsky D A., Reedy T J. Choosing near-linear parameters in the four parameters logistic model radioligands and related assays. Biometrics 1986 September 42(3):575-82.)

VEGFR-3 [2] = target: T1, VEGFR-3; experiment: Ex vivo assay: VEGFR-3 autophosphorylation in HEK cells incubated with plasma of mice dosed p.o.; parameters: species or system male Balb/c mice; settings: HEK293, mouse, transfected HEK cells incubated with plasma (10%), read-out: Ex vivo inhibition (%) At the time
Experimental: Protocol for administration of the products to the mice:
The products are prepared in a mortar with 0.5% Tween 80 and 0.6% methylcellulose qs final volume. The suspensions are administered by gavage (10 ml/kg) to male Balb/c mice 8 to 15 weeks old. Three hours or 6 hours after single oral administrations of 30 mg/kg, animals were anaesthetized with pentobarbital and blood samples (400 μL) were collected from cava vein and transferred into glass tubes containing lithium heparin. After centrifugation (1500-2000 g for 10 minutes), plasma samples were frozen at a temperature close to −20° C. until analysis.
In order to detect the ex vivo activity of the products in the plasmas, we have used the autophosphorylation assay in HEK cells described earlier. For this purpose, transfected cells were incubated with plasma (10%) instead of compounds. Results are expressed as percent of inhibition of VEGFR-3 autophosphorylation in comparison to untreated cells (maximum autophosphorylation) and to untransfected cells (background).
Results are expressed as a percentage of inhibition of VEGFR-3 auto-phosphorylation of in HEK cells, in presence of a plasma sample collected (at a time), after per os (p.o.) administration of compounds. In order to evaluate the increase of this activity for compounds of the invention, a comparison with compounds of the prior art (WO 2009/007535) and subjected to the same measurement is made in table 3.

T1 sequence (P35916 25-1363, species assumed): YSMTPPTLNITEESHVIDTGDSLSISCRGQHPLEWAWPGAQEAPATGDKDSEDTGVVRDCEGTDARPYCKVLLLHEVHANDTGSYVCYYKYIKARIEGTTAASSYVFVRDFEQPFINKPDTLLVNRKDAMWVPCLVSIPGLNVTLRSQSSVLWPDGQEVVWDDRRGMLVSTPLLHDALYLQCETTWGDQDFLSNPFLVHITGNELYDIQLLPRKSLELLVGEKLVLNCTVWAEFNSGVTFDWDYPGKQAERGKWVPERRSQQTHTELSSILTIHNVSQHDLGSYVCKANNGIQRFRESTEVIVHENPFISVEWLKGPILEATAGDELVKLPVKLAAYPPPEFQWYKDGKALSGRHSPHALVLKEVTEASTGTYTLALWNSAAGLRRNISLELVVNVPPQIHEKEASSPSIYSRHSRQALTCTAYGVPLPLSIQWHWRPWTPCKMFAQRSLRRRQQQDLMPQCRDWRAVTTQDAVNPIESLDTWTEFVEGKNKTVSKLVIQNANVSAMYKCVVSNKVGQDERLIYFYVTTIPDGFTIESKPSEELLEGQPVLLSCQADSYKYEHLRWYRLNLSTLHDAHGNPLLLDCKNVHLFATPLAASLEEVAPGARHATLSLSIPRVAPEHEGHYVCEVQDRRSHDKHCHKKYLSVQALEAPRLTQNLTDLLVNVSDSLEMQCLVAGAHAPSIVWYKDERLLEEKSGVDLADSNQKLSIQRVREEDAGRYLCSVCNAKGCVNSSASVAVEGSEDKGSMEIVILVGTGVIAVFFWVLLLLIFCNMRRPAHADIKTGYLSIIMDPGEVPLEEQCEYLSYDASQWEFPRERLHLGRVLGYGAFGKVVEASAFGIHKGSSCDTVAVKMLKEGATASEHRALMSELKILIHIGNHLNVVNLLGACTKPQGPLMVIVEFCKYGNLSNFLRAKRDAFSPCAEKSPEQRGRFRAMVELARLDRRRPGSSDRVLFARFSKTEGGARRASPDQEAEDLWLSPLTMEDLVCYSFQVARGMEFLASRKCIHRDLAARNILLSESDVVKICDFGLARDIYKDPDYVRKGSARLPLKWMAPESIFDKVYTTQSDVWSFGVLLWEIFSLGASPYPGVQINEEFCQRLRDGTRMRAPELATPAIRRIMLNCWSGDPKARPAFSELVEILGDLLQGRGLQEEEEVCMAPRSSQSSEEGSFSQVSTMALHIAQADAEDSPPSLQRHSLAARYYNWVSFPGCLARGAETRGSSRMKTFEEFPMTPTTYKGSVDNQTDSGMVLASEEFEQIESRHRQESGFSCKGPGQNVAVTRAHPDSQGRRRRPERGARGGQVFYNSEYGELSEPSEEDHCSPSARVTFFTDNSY

| pIC50 (VEGFR-3 [1]) | inhibition at 30 mg/kg (VEGFR-3 [2]; 3 h after single oral administration of 30 mg/kg to male Balb/c mice) [%] | inhibition at 30 mg/kg (VEGFR-3 [2]; 6 h after single oral administration of 30 mg/kg to male Balb/c mice) [%] | Compound |
| --- | --- | --- | --- |
| 6.90 | 51 |  | CCn1c(N)c(-c2ncc[nH]2)c(=O)c2ccc(C#CC(C)(O)CO)nc21 (racemic) [Compound 3, 2-Amino-7-(3,4-dihydroxy-3-methyl-but-1-ynyl)-1-ethyl-3-(1H-imidazol-2-yl)-1H-[1,8]naphthyridin-4-one] |
| 7.60 |  | 83 | CCn1c(N)c(-c2ncc[nH]2)c(=O)c2ccc(C#C[C@@](C)(O)COC)nc21 [Compound 1, 2-Amino-1-ethyl-7-((3R)-3-hydroxy-4-methoxy-3-methyl-but-1-ynyl)-3-(1H-imidazol-2-yl)-1H-[1,8]naphthyridin-4-one] |
